Like-named read-outs stand apart in the source and are kept apart here.
How the values were obtained:
[1] = biological target: T1, δ-opioid receptor (Homo sapiens, UniProt P41143); assay: Scintillation screening assay for δ-opioid receptor binding ([3H]bremazocine); settings: cloned human receptor in CHO cell membranes, [3H]bremazocine 2.4 nM; for inhibition at 25 µM: read-out: δ-Opioid Receptor Binding (% Inhibition), % I @ 25 μM
T1 construct: purchased Receptor Biology, Baltimore, Md; host or cells: CHO cells (membranes)
Description: Scintillation Screening Assay for δ-Opioid Receptor Binding
This is a receptor based screen to detect the competitive binding of test compounds at the δ-opioid receptor against the radioligand, [^3H]bremazocine (S.A.=25.5 Cl/mmol, Dupont/NEN, Cambridge, Mass.). Unknown compounds that bind to the same receptor as the radioligand will compete for the receptor and reduce the amount of radioligand which binds to the receptor. This is detected as a decreased scintillation signal from that particular incubation. The greater affinity an unknown has for the receptor, the larger the observed decrease in […] to the receptor; thus the assay is in the format of an inhibition study.
The receptor is a cloned human cDNA expressed in mammalian CHO cells. Membranes prepared from these cells are purchased from Receptor Biology, Baltimore, Md. The reaction buffer is composed as follows: HEPES (50 mM final), MgCl.6H2O (5 mM final), o-phenanthroline (20 mg/l), aprotinin (10 mg/l), Pefabloc SC (250 mg/l), leupeptin (0.5 mg/l), pepstatin A (0.7 mg/l), trypsin inhibitor (25 mg/l), chymostatin (10 mg/l), pH=7.2. Naloxone, 10 uM, is used to define non-specific binding. The assay employs filtration to capture receptor and bound ligand.
The receptor (membrane) preparation (28 ug protein) is allowed to incubate with the opioid receptor radioligand ([^3H]bremazocine, 2.4 nM) in 96-well plates until equilibrium is reached (>2 hr). Following incubation with the radioligand at 23° C., the well contents are filtered onto 96-well Whatman GF/C filter plates using a Packard cell harvester. Radioligand bound to the receptor also remains on the filter. The filters are rinsed three times with 0.5 mL of physiological saline (0.9% NaCl) to remove any unbound radioligand from the filter. Filters are dried and scintillation fluid is then added to the filters which emits light in proportion to the amount of radioactivity on the filter which is determined using an Packard Topcount scintillation counter. Data are reported as percent inhibition of control binding.

[2] = biological target: δ-opioid receptor (Rattus norvegicus, UniProt P33533); assay: Rat brain δ-opioid receptor binding assay ([3H]DPDPE)
[3] = biological target: μ-opioid receptor (Rattus norvegicus, UniProt P33535); assay: Rat brain μ-opioid receptor binding assay ([3H]DAMGO)
[4] = system: acetylcholine bromide-induced abdominal constriction response; assay: Mouse acetylcholine bromide-induced abdominal constriction assay (MAIT); assay type: in vivo; settings: po, 0.5 h, 150 μmole/Kg p.o., acetylcholine bromide 5.5 mg/kg i.p. 30 min later
Description: The mouse acetylcholine-induced abdominal constriction assay, as described by Collier et al. in […]., 32: 295-310, 1968 with minor modifications, was used to assess analgesic potency of the compounds of formula (I). The test drugs or appropriate vehicles were administered orally (p.o.) and 30 min later the animal received an intraperitoneal (i.p.) injection of 5.5 mg/kg acetylcholine bromide (Matheson, Coleman and Bell, East Rutherford, N.J.). The mice were then placed in groups of three into glass bell jars and observed for a ten min observation period for the occurrence of an abdominal constriction response (defined as a wave of constriction and elongation passing caudally along the abdominal wall, accompanied by a twisting of the trunk and followed by extension of the hind limbs). For compounds of the present invention, the percent inhibition of this response to a nociceptive stimulus (equated to % analgesia) was calculated as follows: [formula]

[5] = rat forebrain preparation, [3H]DPDPE, 25° C., read-out: δ-Opioid Receptor Binding (Ki nM)
[6] = rat forebrain preparation, [3H]DAMGO, 25° C., read-out: μ-Opioid Receptor Binding (Ki nM)

T1 sequence (P41143 whole entry): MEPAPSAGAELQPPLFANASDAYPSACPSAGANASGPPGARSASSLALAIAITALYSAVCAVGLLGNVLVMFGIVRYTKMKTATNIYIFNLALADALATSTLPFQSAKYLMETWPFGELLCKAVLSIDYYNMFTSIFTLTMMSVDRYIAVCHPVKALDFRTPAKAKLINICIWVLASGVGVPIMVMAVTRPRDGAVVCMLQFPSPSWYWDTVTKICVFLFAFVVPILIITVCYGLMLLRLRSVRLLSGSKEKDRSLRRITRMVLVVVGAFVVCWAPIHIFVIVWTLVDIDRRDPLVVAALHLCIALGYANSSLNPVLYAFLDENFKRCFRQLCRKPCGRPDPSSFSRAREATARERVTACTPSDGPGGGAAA
μ-opioid receptor, sequence (P33535 whole entry): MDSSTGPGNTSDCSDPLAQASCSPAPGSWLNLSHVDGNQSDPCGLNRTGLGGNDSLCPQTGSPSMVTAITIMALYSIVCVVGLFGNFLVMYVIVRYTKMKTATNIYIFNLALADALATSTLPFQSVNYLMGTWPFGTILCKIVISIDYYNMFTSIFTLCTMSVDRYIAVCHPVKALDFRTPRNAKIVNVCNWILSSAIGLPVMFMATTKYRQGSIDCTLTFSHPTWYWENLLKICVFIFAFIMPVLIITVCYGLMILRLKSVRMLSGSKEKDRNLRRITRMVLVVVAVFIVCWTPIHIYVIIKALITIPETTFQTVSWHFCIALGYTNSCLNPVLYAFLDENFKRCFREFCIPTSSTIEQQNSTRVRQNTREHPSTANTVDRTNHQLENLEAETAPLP
δ-opioid receptor (Rattus norvegicus, UniProt P33533), sequence (P33533 whole entry): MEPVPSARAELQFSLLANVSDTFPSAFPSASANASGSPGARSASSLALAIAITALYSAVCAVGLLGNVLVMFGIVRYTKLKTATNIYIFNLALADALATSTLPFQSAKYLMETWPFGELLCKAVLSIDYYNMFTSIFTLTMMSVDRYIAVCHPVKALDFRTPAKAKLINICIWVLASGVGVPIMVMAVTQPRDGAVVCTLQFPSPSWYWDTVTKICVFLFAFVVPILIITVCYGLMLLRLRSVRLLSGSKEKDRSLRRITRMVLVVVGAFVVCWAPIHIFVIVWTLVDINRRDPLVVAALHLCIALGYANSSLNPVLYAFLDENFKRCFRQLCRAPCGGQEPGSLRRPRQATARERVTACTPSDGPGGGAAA

Molecule	δ-Opioid Receptor Binding (% Inhibition), % I @ 25 μM [1] [%]	Ki [2, 5] [nM]	Ki [3, 6] [nM]	inhibition at 25 µM [1] [%]	Ki [2] [nM]	Ki [3] [nM]	inhibition in vivo at 150 µmol/kg [4] [%]
4-[[(2-chlorophenyl)imino](4-ethyl-1-piperazinyl)methyl]-benzoic acid methyl ester [Compound 31]	100	222	> 10000				
CCN1CCN(C(=Nc2ccccc2)c2ccc(C(=O)N(CC)CC)cc2)CC1 [Compound 1, N,N-diethyl-4-[(4-ethyl-1-piperazinyl)(phenylimino)methyl]-benzamide]				106	16	> 10000	40
CCN1CCN(C(=Nc2cccc(Cl)c2)c2ccc(C(=O)N(CC)CC)cc2)CC1 [Compound 3]				103	62.6	> 10000	40
CCN1CCN(C(=Nc2cccc(Br)c2)c2ccc(C(=O)N(CC)CC)cc2)CC1 [Compound 4, 4-[[(3-bromophenyl)imino](4-ethyl-1-piperazinyl)methyl]-N,N-diethyl-benzamide]				100	57.6	> 10000	7.7
CCCN(CCC)C(=O)c1ccc(C(=Nc2cccc(Br)c2)N2CCN(CC)CC2)cc1 [Compound 5, 4-[[(3-bromophenyl)imino](4-ethyl-1-piperazinyl)methyl]-N,N-dipropyl-benzamide]				100	39.2	5510	14.3
CCN1CCN(C(=Nc2ccccc2Cl)c2ccc(C(=O)N(CC)CC)cc2)CC1 [Compound 6, 4-[[(2-chlorophenyl)imino](4-ethyl-1-piperazinyl)methyl]-N,N-diethyl-benzamide]				103	91.1	> 10000	20
CCCN(CCC)C(=O)c1ccc(C(=Nc2ccccc2Cl)N2CCN(CC)CC2)cc1 [Compound 7, 4-[[(2-chlorophenyl)imino](4-ethyl-1-piperazinyl)methyl]-N,N-dipropyl-benzamide]		292	3930	97			
CCCN(CCC)C(=O)c1ccc(C(=Nc2cccc(F)c2)N2CCN(CC)CC2)cc1 [Compound 8, 4-[(4-ethyl-1-piperazinyl)[(3-fluorophenyl)imino]methyl]-N,N-dipropyl-benzamide]				97	60.7	6890	7.1
CCN1CCN(C(=Nc2cccc(F)c2)c2ccc(C(=O)N(CC)CC)cc2)CC1 [Compound 9, N,N-diethyl-4-[(4-ethyl-1-piperazinyl)[(3-fluorophenyl)imino]methyl]-benzamide]				97	58.5	> 10000	
CCCN(CCC)C(=O)c1ccc(C(=Nc2ccccc2F)N2CCN(CC)CC2)cc1 [Compound 11, 4-[(4-ethyl-1-piperazinyl)[(2-fluorophenyl)imino]methyl]-N,N-dipropyl-benzamide]		256	> 10000	98			
CCCN(CCC)C(=O)c1ccc(C(=Nc2cc(Cl)cc(Cl)c2)N2CCN(CC)CC2)cc1 [Compound 12, 4-[[(3,5-dichlorophenyl)imino](4-ethyl-1-piperazinyl)methyl]-N,N-dipropyl-benzamide]		674	> 10000	98			
CCN1CCN(C(=Nc2cc(Cl)cc(Cl)c2)c2ccc(C(=O)N(CC)CC)cc2)CC1 [Compound 13, 4-[[(3,5-dichlorophenyl)imino](4-ethyl-1-piperazinyl)methyl]-N,N-diethyl-benzamide]		277	> 10000	100			
CCCN1CCN(C(=Nc2cccc(Cl)c2)c2ccc(C(=O)N(CC)CC)cc2)CC1 [Compound 14, 4-[[(3-chlorophenyl)imino](4-propyl-1-piperazinyl)methyl]-N,N-diethyl-benzamide]				101	177	9530	
C=CCN1C[C@H](C)N(/C(=N/c2ccccc2)c2ccc(C(=O)N(CC)CC)cc2)C[C@H]1C [Compound 16, 4-[(E)-[(2S,5R)-2,5-dimethyl-4-(2-propenyl)piperazinyl](phenylimino)methyl]-N,N-diethyl-benzamide]		170	4330				50
C=CCN1CCN(C(=Nc2ccccc2Cl)c2ccc(C(=O)N(CC)CC)cc2)CC1 [Compound 19, 4-[[(2-chlorophenyl)imino][4-(2-propenyl)-1-piperazinyl]methyl]-N,N-diethyl-benzamide]					20.5	7600	40
CCN(CC)C(=O)c1ccc(C(=Nc2ccccc2Cl)N2CCN(Cc3ccccc3)CC2)cc1 [Compound 20, 4-[[(2-chlorophenyl)imino][4-(phenylmethyl)-1-piperazinyl]methyl]-N,N-diethyl-benzamide]					11.8	> 10000	23.1
CCN(CC)C(=O)c1ccc(C(=Nc2ccccc2Cl)N2CCN(CCc3cccs3)CC2)cc1 [Compound 21, 4-[[(2-chlorophenyl)imino][4-[2-(2-thienyl)ethyl]-1-piperazinyl]methyl]-N,N-diethyl-benzamide]					95.3	> 10000	40
CCN1CCN(C(=Nc2cccc(Cl)c2)c2ccc(C(=O)OC)cc2)CC1 [Compound 29, 4-[[(3-chlorophenyl)imino](4-ethyl-1-piperazinyl)methyl]-benzoic acid methyl ester]		283	> 10000	97			
CCN1CCN(C(=Nc2cccc(Br)c2)c2ccc(C(=O)OC)cc2)CC1 [Compound 30, 4-[[(3-bromophenyl)imino](4-ethyl-1-piperazinyl)methyl]-benzoic acid methyl ester]		638	> 10000	99			
CCN1CCN(C(=Nc2cccc(F)c2)c2ccc(C(=O)OC)cc2)CC1 [Compound 32, 4-[(4-ethyl-1-piperazinyl)[(3-fluorophenyl)imino]methyl]-benzoic acid methyl ester]				97	259	> 10000	
CCN1CCN(C(=Nc2cccc(F)c2)c2ccc(C(=O)OC)cc2)CC1 [Compound 33, 4-[(4-ethyl-1-piperazinyl)[(3-fluorophenyl)imino]methyl]-benzoic acid methyl ester]	100						
CCCN1CCN(C(=Nc2ccccc2Cl)c2ccc(C(=O)OC)cc2)CC1 [Compound 34, 4-[[(2-chlorophenyl)imino](4-propyl-1-piperazinyl)methyl]-benzoic acid methyl ester]				90	87.3	2070	
CCN1CCN(C(=Nc2ccccc2)c2ccc(C(=O)OC)cc2)CC1 [Compound 46, 4-[(4-ethyl-1-piperazinyl)(phenylimino)methyl]-benzoic acid methyl ester]				94			26.7
CCN1CCN(C(=Nc2cccc(OC)c2)c2ccc(C(=O)OC)cc2)CC1 [Compound 47, 4-[(4-ethyl-1-piperazinyl)[(3-methoxyphenyl)imino]methyl]-benzoic acid methyl ester]				91			26.7
CCN1CCN(C(=Nc2ccccc2OC)c2ccc(C(=O)OC)cc2)CC1 [Compound 48, 4-[(4-ethyl-1-piperazinyl)[(2-methoxyphenyl)imino]methyl]-benzoic acid methyl ester]				60			

— patent US6887876B2, “Benzamidine derivatives” (Ortho-McNeil Pharmaceutical, Inc., priority 2000, dated 2005)
